Measurements: patent publication US12528808B2, “Therapy for erythropoietic protoporphyria (EPP) and X-linked protoporphyria (XLP)” (UNIVERSITY OF PITTSBURGH-OF THE COMMONWEALTH SYSTEM OF …, priority 2019, dated 2026)
“Also recorded” adds a separate entry of the source.

Legend:
[1] = Pharmacokinetic study in mice; type: in vivo; conditions: WT mice, 50 mg/kg by gavage, serum, FIG. 11
Method: Pharmacokinetic Study in Mice.
Blood was collected at 0, 0.25, 0.5, 1, 2, 4, 8, 12, 24 h after treatment. The concentration of target compound in serum was analyzed by UPLC-QTOFMS.

ABCG2 = biological target: T1, ABCG2 (Homo sapiens, UniProt Q9UNQ0); experiment: Protoporphyrin IX (PPIX)-based ABCG2 inhibition assay using the A549 cancer cell line; conditions: read-out: IC50, the half maximal inhibitory concentration
T1 construct: developed using the A549 cancer cell line; endogenous in cells; host or cells: A549 cancer cell line
T1 sequence (Q9UNQ0 1-655): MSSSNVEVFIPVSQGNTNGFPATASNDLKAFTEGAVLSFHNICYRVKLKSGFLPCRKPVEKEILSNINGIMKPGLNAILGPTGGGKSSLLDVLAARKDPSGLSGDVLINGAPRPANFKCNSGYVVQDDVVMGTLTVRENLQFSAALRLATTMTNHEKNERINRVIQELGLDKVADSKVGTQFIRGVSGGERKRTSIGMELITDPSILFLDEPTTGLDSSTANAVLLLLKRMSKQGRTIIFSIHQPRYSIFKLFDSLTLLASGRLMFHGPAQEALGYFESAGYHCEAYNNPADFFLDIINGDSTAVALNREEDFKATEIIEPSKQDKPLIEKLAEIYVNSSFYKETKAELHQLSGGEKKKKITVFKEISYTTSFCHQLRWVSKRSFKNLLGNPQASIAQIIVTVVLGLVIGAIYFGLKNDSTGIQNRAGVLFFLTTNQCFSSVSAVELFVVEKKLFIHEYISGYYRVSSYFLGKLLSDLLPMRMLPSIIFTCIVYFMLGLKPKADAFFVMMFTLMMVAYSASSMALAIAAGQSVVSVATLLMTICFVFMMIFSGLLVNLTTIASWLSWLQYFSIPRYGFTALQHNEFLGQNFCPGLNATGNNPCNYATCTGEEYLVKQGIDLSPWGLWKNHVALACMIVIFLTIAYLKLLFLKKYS
Excerpt: A Protoporphyrin IX(PPIX)-based ABCG2 inhibition assay was developed using the A549 cancer cell line.

[2] = Metabolic stability assay, incubation with human liver microsomes (HLM); type: in vitro ADME; conditions: remaining parent compound
Method: Metabolic Stability Assay.
After the incubation (0-60 min), the remaining parent compounds were analyzed by UPLC-QTOFMS.

RBCs of Fech-mut mice = experiment: Effect on PPIX efflux from RBCs; type: cell-based; conditions: 10 μM, FIG. 14
Excerpt: Effects of ABCG2 Inhibitors on PPIX Efflux from RBCs.
PPIX in RBCs and culture medium was extracted, respectively, and analyzed by UPLC-QTOFMS.

Fech-mut mice = experiment: Efficacy against EPP-associated phototoxicity in vivo (Fech-mut mouse model)
Method: Efficacy of ABCG2 Inhibitors Against EPP-Associated Phototoxicity In Vivo.
The Fech-mut mouse model was used as an EPP model to determine the efficacy of ABCG2 inhibitors against EPP-associated phototoxicity, the most common symptom in EPP patients (6-8). […] After 5 days' treatment, all mice were sacrificed for evaluation of skin damage.
Thirty minutes after treatment, the mice were exposed to UV light for 30 minutes. The same treatment (drug plus light exposure) was repeated once daily for 4 days. From the 5th day, drug treatment was stopped, but the light exposure was continued for 4 more days. The gross appearance of mouse skin was recorded every day. On the 9th day, all mice were sacrificed and the back skin was collected for evaluation of phototoxicity.

WT and Abcg2-null mice = experiment: Chemically-induced PPIX accumulation and hepatotoxicity in WT and Abcg2-null mice; conditions: DDC 0.1% or GSF 2.5% in diet, two weeks
Method: Animal Studies to Determine the Role of ABCG2 in Chemically-Induced PPIX Accumulation and Hepatotoxicity
WT and Abcg2-null mice were treated with DDC (0.1% in diet) or GSF (2.5% in diet) for two weeks. In addition, hPXR and hPXR/Abcg2-null mice were treated with RIF (100 mg/Kg diet) and INH (400 mg/L drinking water) for four weeks. After the treatment, blood and liver samples were collected for evaluation of liver injury and analysis of PPIX.
Liver injury was evaluated by analyzing serum alanine aminotransaminase (ALT), aspartate aminotransferase (AST), alkaline phosphatase (ALP) (Pointe Scientific Canton, MI), and total bilirubin (Sigma-Aldrich, St. Louis, MO). These liver injury biomarkers were analyzed according to the standard procedures provided by the manufacturers. Blood toxicity was evaluated by analyzing mean corpuscular hemoglobin (MCH) (HESKA HemaTrue; Loveland, CO) and total hemoglobin (tHb) (AVOXimeter 4000; Edison, NJ).
Liver and skin tissues were first fixed in 4% formaldehyde phosphate solution overnight and then dehydrated and embedded in paraffin. […] sections were cut and stained. For hematoxylin and eosin (H&E) staining, tissue sections were stained in hematoxylin solution for 5 min, washed with tap water for 1 min, and then differentiated in 1% acetic acid solution for 1 min and followed by staining in eosin solution for 1 min. For Sirius Red Staining, tissue sections were stained in 0.1% PicroSirius Red solution for 1 h, and then washed with 1% acetic acid solution twice.

carboxylesterase 1 = biological target: T2, carboxylesterase 1 (Homo sapiens, UniProt P23141); experiment: Hydrolysis of tert-butyl ester group by carboxylesterase 1; type: in vitro ADME
T2 sequence (P23141 18-567): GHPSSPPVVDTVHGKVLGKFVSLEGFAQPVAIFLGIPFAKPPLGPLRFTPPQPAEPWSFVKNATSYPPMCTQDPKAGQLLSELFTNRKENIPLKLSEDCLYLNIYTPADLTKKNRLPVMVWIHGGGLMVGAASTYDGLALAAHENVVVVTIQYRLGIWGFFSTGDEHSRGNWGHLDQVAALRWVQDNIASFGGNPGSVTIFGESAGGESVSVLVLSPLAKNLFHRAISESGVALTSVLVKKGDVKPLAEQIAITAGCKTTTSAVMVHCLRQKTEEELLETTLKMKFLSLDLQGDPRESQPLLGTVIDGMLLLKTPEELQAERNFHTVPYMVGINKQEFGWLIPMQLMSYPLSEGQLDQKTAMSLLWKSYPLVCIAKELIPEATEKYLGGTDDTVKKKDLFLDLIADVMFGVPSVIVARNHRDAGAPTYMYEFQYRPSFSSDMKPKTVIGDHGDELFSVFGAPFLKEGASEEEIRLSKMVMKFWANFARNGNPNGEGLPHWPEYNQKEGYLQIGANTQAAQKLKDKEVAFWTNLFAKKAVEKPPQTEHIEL

[3] = read-out: CC50, the 50% cytotoxic concentration, MTT assay

Row | IC50 (ABCG2) [µM] | HLM stability (% vs 0 min) 30 min [2] [%] | HLM stability (% vs 0 min) 60 min [2] [%] | SMILES | CC50 (MTT cytotoxicity assay; [3]) [µM] | further results
1 | 0.18 | 74 | 60 | COc1ccc2c3c([nH]c2c1)[C@H](CC(C)C)N1C(=O)[C@H](CC(=O)NC(C)(C)C)NC(=O)[C@@H]1C3 [Compound K3, N-(tert-butyl)-2-((3S,6S,12aS)-6-isobutyl-9-methoxy-1,4-dioxo-1,2,3,4,6,7,12,12a-octahydropyrazino[1′,2′:1,6]pyrido[3,4-b]indol-3-yl)acetamide] | 58.9 | 
2 | 0.13 | 45 | 26 | COc1ccc2c3c([nH]c2c1)[C@H](CC(C)C)N1C(=O)[C@H](CC(=O)NC2CCCCC2)NC(=O)[C@@H]1C3 [Compound K23, N-cyclohexyl-2-((3S,6S,12aS)-6-isobutyl-9-methoxy-1,4-dioxo-1,2,3,4,6,7,12,12a-octahydropyrazino[1′,2′:1,6]pyrido[3,4-b]indol-3-yl)acetamide] | 46.6 | 
3 | 3.14 |  |  | COc1ccc2c3c([nH]c2c1)[C@H](CC(C)C)N1C(=O)[C@H](CC(=O)N2CCCCC2)NC(=O)[C@@H]1C3 [Compound K25, (3S,6S,12aS)-6-isobutyl-9-methoxy-3-(2-oxo-2-(piperidin-1-yl)ethyl)-2,3,12,12a-tetrahydropyrazino[1′,2′:1,6]pyrido[3,4-b]indole-1,4(6H,7H)-dione] | 26.5 | 
4 | 0.27 | 65 | 49 | COc1ccc2c3c([nH]c2c1)[C@H](CC(C)C)N1C(=O)[C@H](CC(=O)NC(C)C)NC(=O)[C@@H]1C3 [Compound K31, 2-((3S,6S,12aS)-6-isobutyl-9-methoxy-1,4-dioxo-1,2,3,4,6,7,12,12a-octahydropyrazino[1′,2′:1,6]pyrido[3,4-b]indol-3-yl)-N-isopropylacetamide] | > 100 | pharmacokinetic profile ([1]; 50 mg/kg): better pharmacokinetic profiles than KO143; also recorded: ideal pharmacokinetic profile; PPIX efflux from RBCs (RBCs of Fech-mut mice): significantly inhibited PPIX efflux from RBCs; protection from phototoxicity in EPP mouse model (Fech-mut mice; Fech-mut mice pretreated 30 min, then UV light (395-410 nm) 30 min, 5 days, FIG. 12): fully protected the EPP mice from phototoxicity; phototoxicity after withdrawal (withdrawal test) (Fech-mut mice; Fech-mut mice, 100 mg/kg po plus light day 1 to 4, light only from day 5, FIG. 13): showed phototoxicity soon after the withdrawal of K31
5 | 0.25 | 37 | 18 | COc1ccc2c3c([nH]c2c1)[C@H](CC(C)C)N1C(=O)[C@H](CC(=O)NCc2ccccc2)NC(=O)[C@@H]1C3 [Compound K33, N-benzyl-2-((3S,6S,12aS)-6-isobutyl-9-methoxy-1,4-dioxo-1,2,3,4,6,7,12,12a-octahydropyrazino[1′,2′:1,6]pyrido[3,4-b]indol-3-yl)acetamide] | 31.1 | 

Second part, the compound before the results:

Row | SMILES | IC50 (ABCG2) [µM] | HLM stability (% vs 0 min) 30 min [2] [%] | HLM stability (% vs 0 min) 60 min [2] [%] | CC50 (MTT cytotoxicity assay; [3]) [µM] | further results
6 | COc1ccc2c3c([nH]c2c1)[C@H](CC(C)C)N1C(=O)[C@H](CCC(=O)NC(C)(C)C)NC(=O)[C@@H]1C3 [Compound K2, N-(tert-butyl)-3-((3S,6S,12aS)-6-isobutyl-9-methoxy-1,4-dioxo-1,2,3,4,6,7,12,12a-octahydropyrazino[1′,2′:1,6]pyrido[3,4-b]indol-3-yl)propanamide] |  |  |  |  | pharmacokinetic profile [1]: better pharmacokinetic profiles than KO143
7 | COc1ccc2c3c([nH]c2c1)[C@H](CC(C)C)N1C(=O)[C@H](CCCOC(C)(C)C)NC(=O)[C@@H]1C3 [Compound K7, (3S,6S,12aS)-3-(3-(tert-butoxy)propyl)-6-isobutyl-9-methoxy-2,3,12,12a-tetrahydropyrazino[1′,2′:1,6]pyrido[3,4-b]indole-1,4(6H,7H)-dione] | 0.09 | 16 | 9 |  | CC50 (in vitro): > 100 µM
8 | COc1ccc2c3c([nH]c2c1)[C@H](CC(C)C)N1C(=O)[C@H](CCCCNC(=O)C(C)(C)C)N(C(=O)C(C)(C)C)C(=O)[C@@H]1C3 [Compound K11, N-(4-((3S,6S,12aS)-6-isobutyl-9-methoxy-1,4-dioxo-2-pivaloyl-1,2,3,4,6,7,12,12a-octahydropyrazino[1′,2′:1,6]pyrido[3,4-b]indol-3-yl)butyl)pivalamide] |  | 7 | 7 |  | CC50 (MTT cytotoxicity assay): 39.6 µM
9 | COc1ccc2c3c([nH]c2c1)[C@H](CC(C)C)N1C(=O)[C@H](CCC(=O)NC(C)C)NC(=O)[C@@H]1C3 [Compound K34, 3-((3S,6S,12aS)-6-isobutyl-9-methoxy-1,4-dioxo-1,2,3,4,6,7,12,12a-octahydropyrazino[1′,2′:1,6]pyrido[3,4-b]indol-3-yl)-N-isopropylpropanamide] |  |  |  |  | pharmacokinetic profile [1]: better pharmacokinetic profiles than KO143
10 | CCOC(=O)C1=C(C)NC(C)=C(C(=O)OCC)C1C [DDC, 3,5-diethoxycarbonyl-1,4-dihydrocollidine] |  |  |  |  | liver damage, PPIX accumulation, bile plugs (WT and Abcg2-null mice; Abcg2-null mice): these effects failed to occur; liver damage, PPIX accumulation, bile plugs (WT and Abcg2-null mice; WT mice): caused liver damage, PPIX accumulation, and bile plugs
11 | COC1=CC(=O)C[C@@H](C)[C@]12Oc1c(Cl)c(OC)cc(OC)c1C2=O [GSF, griseofulvin] |  |  |  |  | liver damage, PPIX accumulation, bile plugs (WT and Abcg2-null mice; Abcg2-null mice): these effects failed to occur; liver damage, PPIX accumulation, bile plugs (WT and Abcg2-null mice; WT mice): caused liver damage, PPIX accumulation, and bile plugs
12 | COc1ccc2c3c([nH]c2c1)[C@H](CC(C)C)N1C(=O)[C@H](CCC(=O)OC(C)(C)C)NC(=O)[C@@H]1C3 [KO143, reference compound] |  |  |  |  | stability (hydrolysis of tert-butyl ester group) (carboxylesterase 1): very unstable; pharmacokinetic profile [1]: poor oral pharmacokinetic profile
